Values joined by “and” are separate entries in the source; they are usually repeats but may differ in a detail not shown here. Equal entries are not always repeated. Toxic doses and inconclusive results are not listed. Rule for the calls: active = survival T/C of 150% or more; inactive = T/C below 125% in these data.
System: C57BL/6 mice, intracerebral ependymoblastoma, median survival T/C
Test: NCI In Vivo Anticancer Drug Screen. Data for tumor model Ependymoblastoma (intracerebral) in C57BL/6 mice
Details: endpoint: median survival time, higher = longer survival
Experimental: The antitumor activity of compounds was measured in mice bearing transplantable tumors. Survival or tumor size were measured and the results are expressed as the measurement made in the treated group (T) divided by the measurement made in the vehicle treated control group (C). The tumor model used in this assay is Ependymoblastoma (intracerebral) in C57BL/6 mice

[1] = dose: 1.0 mg/kg/injection, schedule: Q01DX005 (ip), vehicle: Klucel (hydroxypropylcellulose) (HPC)
[2] = dose: 2.0 mg/kg/injection, schedule: Q01DX005 (ip), vehicle: Klucel (hydroxypropylcellulose) (HPC)
[3] = dose: 4.0 mg/kg/injection, schedule: Q01DX005 (ip), vehicle: saline with Tween-80
[4] = dose: 8.0 mg/kg/injection, schedule: Q01DX005 (ip), vehicle: saline with Tween-80
[5] = dose: 32.0 mg/kg/injection, schedule: Q01DX001 (ip), vehicle: Klucel (hydroxypropylcellulose) (HPC)
[6] = dose: 64.0 mg/kg/injection, schedule: Q01DX001 (ip), vehicle: Klucel (hydroxypropylcellulose) (HPC)
[7] = dose: 128.0 mg/kg/injection, schedule: Q01DX001 (ip), vehicle: Klucel (hydroxypropylcellulose) (HPC)
[8] = dose: 256.0 mg/kg/injection, schedule: Q01DX001 (ip), vehicle: Klucel (hydroxypropylcellulose) (HPC)
[9] = dose: 16.0 mg/kg/injection, schedule: Q01DX005 (ip), vehicle: saline with Tween-80
[10] = dose: 32.0 mg/kg/injection, schedule: Q01DX005 (ip), vehicle: saline with Tween-80
[11] = dose: 64.0 mg/kg/injection, schedule: Q01DX005 (ip), vehicle: saline with Tween-80

Measured: T/C

O=C1c2ccccc2C(=O)c2c(NCCNCCO)ccc(NCCNCCO)c21
inactive: dose: 0.5 mg/kg/injection, schedule: Q01DX005 (ip), vehicle: Klucel (hydroxypropylcellulose) (HPC) 104 % of control and 110 % of control | dose: 0.5 mg/kg/injection, schedule: Q01DX005 (ip), vehicle: water 91 % of control and 103 % of control | [1] 102 % of control and 107 % of control | dose: 1.0 mg/kg/injection, schedule: Q01DX005 (ip), vehicle: saline with Tween-80 94 % of control | dose: 1.0 mg/kg/injection, schedule: Q01DX005 (ip), vehicle: saline 94 % of control | dose: 1.0 mg/kg/injection, schedule: Q01DX005 (ip), vehicle: water 105 % of control | dose: 1.0 mg/kg/injection, schedule: Q04DX003 (ip), vehicle: Klucel (hydroxypropylcellulose) (HPC) 113 % of control | dose: 1.0 mg/kg/injection, schedule: Q04DX003 (ip), vehicle: water 103 % of control | [2] 97 % of control and 108 % of control | dose: 2.0 mg/kg/injection, schedule: Q01DX005 (ip), vehicle: saline with Tween-80 100 % of control | dose: 2.0 mg/kg/injection, schedule: Q01DX005 (ip), vehicle: saline 108 % of control | dose: 2.0 mg/kg/injection, schedule: Q01DX005 (ip), vehicle: water 94 % of control and 102 % of control | dose: 2.0 mg/kg/injection, schedule: Q04DX003 (ip), vehicle: Klucel (hydroxypropylcellulose) (HPC) 103 % of control | dose: 2.0 mg/kg/injection, schedule: Q04DX003 (ip), vehicle: water 110 % of control | dose: 4.0 mg/kg/injection, schedule: Q01DX001 (ip), vehicle: Klucel (hydroxypropylcellulose) (HPC) 87 % of control | dose: 4.0 mg/kg/injection, schedule: Q01DX001 (ip), vehicle: water 107 % of control | dose: 4.0 mg/kg/injection, schedule: Q01DX005 (ip), vehicle: Klucel (hydroxypropylcellulose) (HPC) 98 % of control and 104 % of control | dose: 4.0 mg/kg/injection, schedule: Q01DX005 (ip), vehicle: other 105 % of control | [3] 104 % of control and 109 % of control | dose: 4.0 mg/kg/injection, schedule: Q01DX005 (ip), vehicle: saline 100 % of control | dose: 4.0 mg/kg/injection, schedule: Q01DX005 (ip), vehicle: water 98 % of control and 105 % of control | dose: 4.0 mg/kg/injection, schedule: Q04DX003 (ip), vehicle: Klucel (hydroxypropylcellulose) (HPC) 104 % of control | dose: 4.0 mg/kg/injection, schedule: Q04DX003 (ip), vehicle: water 96 % of control | dose: 8.0 mg/kg/injection, schedule: Q01DX001 (ip), vehicle: Klucel (hydroxypropylcellulose) (HPC) 95 % of control | dose: 8.0 mg/kg/injection, schedule: Q01DX001 (ip), vehicle: water 101 % of control | dose: 8.0 mg/kg/injection, schedule: Q01DX005 (ip), vehicle: Klucel (hydroxypropylcellulose) (HPC) 104 % of control and 107 % of control | dose: 8.0 mg/kg/injection, schedule: Q01DX005 (ip), vehicle: other 110 % of control | [4] 115 % of control | dose: 8.0 mg/kg/injection, schedule: Q01DX005 (ip), vehicle: water 106 % of control and 108 % of control | dose: 8.0 mg/kg/injection, schedule: Q04DX003 (ip), vehicle: Klucel (hydroxypropylcellulose) (HPC) 108 % of control | dose: 8.0 mg/kg/injection, schedule: Q04DX003 (ip), vehicle: water 119 % of control | dose: 16.0 mg/kg/injection, schedule: Q01DX001 (ip), vehicle: Klucel (hydroxypropylcellulose) (HPC) 98 % of control | dose: 16.0 mg/kg/injection, schedule: Q01DX001 (ip), vehicle: water 107 % of control | dose: 16.0 mg/kg/injection, schedule: Q01DX005 (ip), vehicle: Klucel (hydroxypropylcellulose) (HPC) 110 % of control and 112 % of control | dose: 16.0 mg/kg/injection, schedule: Q01DX005 (ip), vehicle: water 105 % of control | dose: 16.0 mg/kg/injection, schedule: Q04DX003 (ip), vehicle: Klucel (hydroxypropylcellulose) (HPC) 109 % of control | dose: 16.0 mg/kg/injection, schedule: Q04DX003 (ip), vehicle: water 114 % of control | [5] 112 % of control | dose: 32.0 mg/kg/injection, schedule: Q01DX001 (ip), vehicle: water 112 % of control | dose: 32.0 mg/kg/injection, schedule: Q01DX005 (ip), vehicle: Klucel (hydroxypropylcellulose) (HPC) 93 % of control and 117 % of control | dose: 32.0 mg/kg/injection, schedule: Q04DX003 (ip), vehicle: Klucel (hydroxypropylcellulose) (HPC) 103 % of control | dose: 32.0 mg/kg/injection, schedule: Q04DX003 (ip), vehicle: water 109 % of control | [6] 105 % of control | dose: 64.0 mg/kg/injection, schedule: Q01DX001 (ip), vehicle: water 115 % of control | dose: 64.0 mg/kg/injection, schedule: Q04DX003 (ip), vehicle: Klucel (hydroxypropylcellulose) (HPC) 99 % of control | [7] 98 % of control | [8] 104 % of control

CCN(CC)CCCC(C)Nc1c2ccc(Cl)cc2nc2ccc(OC)cc12 (stereo unspecified)
inactive: dose: 8.0 mg/kg/injection, schedule: Q01DX005 (ip), vehicle: saline 104 % of control | [9] 91 % of control | dose: 16.0 mg/kg/injection, schedule: Q01DX005 (ip), vehicle: saline 98 % of control | [10] 102 % of control | dose: 32.0 mg/kg/injection, schedule: Q01DX005 (ip), vehicle: saline 90 % of control | [11] 94 % of control | dose: 64.0 mg/kg/injection, schedule: Q01DX005 (ip), vehicle: saline 95 % of control | dose: 128.0 mg/kg/injection, schedule: Q01DX005 (ip), vehicle: saline with Tween-80 94 % of control

CCOC(=O)C(CC(C)C)NC(=O)C(Cc1ccc(N(CCCl)CCCl)cc1)NC(C)=O (stereo unspecified)
inactive: [1] 103 % of control | [2] 94 % of control and 101 % of control | [3] 96 % of control and 109 % of control | [4] 110 % of control and 119 % of control | [9] 107 % of control | dose: 16.0 mg/kg/injection, schedule: Q#A X002 (ip), vehicle: Klucel (hydroxypropylcellulose) (HPC) 110 % of control | [5] 100 % of control | [10] 97 % of control and 116 % of control | dose: 32.0 mg/kg/injection, schedule: Q#A X002 (ip), vehicle: Klucel (hydroxypropylcellulose) (HPC) 96 % of control | [6] 97 % of control and 103 % of control | dose: 64.0 mg/kg/injection, schedule: Q01DX001 (oral), vehicle: Klucel (hydroxypropylcellulose) (HPC) 99 % of control and 113 % of control | [11] 91 % of control | dose: 64.0 mg/kg/injection, schedule: Q#A X002 (ip), vehicle: Klucel (hydroxypropylcellulose) (HPC) 94 % of control | [7] 94 % of control and 115 % of control | dose: 128.0 mg/kg/injection, schedule: Q01DX001 (oral), vehicle: Klucel (hydroxypropylcellulose) (HPC) 99 % of control and 110 % of control | dose: 128.0 mg/kg/injection, schedule: Q#A X002 (ip), vehicle: Klucel (hydroxypropylcellulose) (HPC) 99 % of control | [8] 91 % of control and 98 % of control | dose: 256.0 mg/kg/injection, schedule: Q01DX001 (oral), vehicle: Klucel (hydroxypropylcellulose) (HPC) 101 % of control and 110 % of control | dose: 512.0 mg/kg/injection, schedule: Q01DX001 (ip), vehicle: Klucel (hydroxypropylcellulose) (HPC) 86 % of control | dose: 512.0 mg/kg/injection, schedule: Q01DX001 (oral), vehicle: Klucel (hydroxypropylcellulose) (HPC) 104 % of control and 114 % of control | dose: 1024.0 mg/kg/injection, schedule: Q01DX001 (oral), vehicle: Klucel (hydroxypropylcellulose) (HPC) 100 % of control and 109 % of control
